Measured values reported in patent US20140329863A1 (priority 2011, published 2014).
Converted amounts (≈) assume the structure as drawn.

What was measured:
Media solubility = assay type: physicochemical; conditions: cell media
Experimental: To evaluate media solubility, two protocols were followed. In the first, solutions were prepared as described above. After overnight equilibration, samples were centrifuged for 30 min, without filtration, and supernatant analyzed by HPLC/UV/VIS with reference to three standards (5, 100, 250 μM). In the second protocol, turbidimetric analysis, dilutions of the compound of interest were prepared in media with target concentrations of 5, 10, 20, 50, 100, 200 and 300 μM. Media without solute was included for background. These solutions were evaluated using a light scattering technique and a Nepheloskan instrument.

[1] = Hepatic microsomal stability, human; conditions: for half-life at 1 μM: human, pH 7.4
[2] = Hepatic microsomal stability, rat
[3] = Hepatic microsomal stability, mouse; conditions: for half-life at 1 μM: CD-1, mouse, pH 7.4
[4] = system: PrP^Sc in dividing ScN2a-cl3 cells; conditions: previously demonstrated; cited from earlier work
[5] = system: PrP^Sc in dividing ScN2a-c13 cells; conditions: HTS of 1,700 FDA-approved drugs
[6] = system: PrP^Sc in nondividing ScN2a-cl3 cells; conditions: previously demonstrated; cited from earlier work
PrP^C in IMR32 cells = assay type: cell-based, human
prion-infected mice = conditions: literature reports; cited from earlier work

Structure (SMILES): COc1ccc(Nc2nc(-c3ccc(OC)c(OC)c3)cs2)nc1 [IND44, [4-(3,4-Dimethoxy-phenyl)-thiazol-2-yl]-(5-methoxy-pyridin-2-yl)-amine]
- solubility in media (in words) (Media solubility): lower solubility
- % remaining after a 60-min incubation, Human ([1]; human liver microsomes, 60-min incubation): 48%
- half-life at 1 μM ([1]; human liver microsomes): 58 min
- half-life at 1 μM ([1]; liver microsomes): 58 min
- solubility in FaSSIF (in words) (fasted-state simulated intestinal fluid): lower solubility
- solubility at pH 2.0 (in words) (pH 2 (HCl) buffer): lower solubility
- solubility at pH 7.4 (in words) (pH 7.4 phosphate buffer): lower solubility
- solubility (physchem; FaSSIF): < 1 µM
- solubility (physchem; cell culture media, plasma or biological fluid): 3 µM (≈ 1.03 µg/mL)
- solubility (physchem; pH 2 (HCl) buffer, pH 2, simulated gastric fluid): 1 µM (≈ 0.343 µg/mL)
- solubility (physchem; pH 7.4 (phosphate) buffer, pH 7.4, aqueous buffer): < 1 µM
- t1/2 in min, Rat ([2]; […]): 45 min
- % remaining after a 60-min incubation, Rat ([2]; […], 60-min incubation): 39%
- t1/2 Rat ([2]; rat microsomes): 45 min
- half-life at 1 μM ([3]; liver microsomes): 29 min
- half-life at 1 μM ([3]; mouse liver microsomes): 29 min
- % remaining after a 60-min incubation, Mouse ([3]; mouse liver microsomes, 60-min incubation): 24%

Structure (SMILES): CCN(CC)CCCC(C)Nc1c2ccc(Cl)cc2nc2ccc(OC)cc12 (stereo not shown) [quinacrine]
- Clearance of PrP^Sc in dividing cells [4]: rapidly clears dividing cells of PrP^Sc
- PrP^Sc levels, HTS of FDA-approved drugs [5]: lowered
- Clearance of PrP^Sc in nondividing prion-infected cells [6]: relatively ineffective
- PrP^C levels, HTS of FDA-approved drugs (PrP^C in IMR32 cells): lowered
- effect in prion-infected mice (prion-infected mice): ineffective
